target: human MGL from HeLa cells (Homo sapiens (Human), UniProt Q99685); test: MGL in vitro activity assay ([glycerol-1,3-3H]-oleoyl glycerol cleavage, activated carbon filter); assay type: biochemical; settings: 300 nM [Glycerol-1,3-3H]-oleoyl glycerol, endogenously expressed MGL from HeLa cells, one hour incubation; read-out: MGL IC50
Method: The assay consists of combining endogenously expressed MGL from HeLa cells with test compounds, adding[glycerol-1,3-^3H]-oleoyl glycerol, incubating for one hour, and then measuring the amount of cleaved[1,3-^3H]-glycerol that passes through an activated carbon filter. The amount of cleaved, tritiated glycerol passing through the carbon filter is proportional to the activity of the MGL enzyme in a particular well/test condition.
Standard conditions for this assay combine 300 nM [Glycerol-1,3-^3H]-oleoyl glycerol with human MGL from HeLa cells and test compounds for one hour, after which the reaction is filtered through activated carbon and tritium is measured in the flow through. […] MGL is the predominant hydrolase in HeLa cells/cell homogenates.

Chain of human MGL from HeLa cells (Q99685 whole entry): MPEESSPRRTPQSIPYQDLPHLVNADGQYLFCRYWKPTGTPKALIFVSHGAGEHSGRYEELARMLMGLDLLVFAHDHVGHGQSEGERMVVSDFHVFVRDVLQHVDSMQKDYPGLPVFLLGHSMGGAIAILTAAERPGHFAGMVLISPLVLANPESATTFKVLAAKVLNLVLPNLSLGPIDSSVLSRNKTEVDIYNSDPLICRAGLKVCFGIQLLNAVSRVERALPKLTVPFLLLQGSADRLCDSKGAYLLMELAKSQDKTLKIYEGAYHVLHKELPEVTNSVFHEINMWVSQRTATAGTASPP

Compound	IC50
O=C1N[C@]2(CO1)C[C@H](C(=O)N1CCC3(c4ccccc4)C(Cl)C3C1)C2 (mixture of isomers) [Example 123, (rac)-(2s,4s)-2-(7-Chloro-6-phenyl-3-azabicyclo[4.1.0]heptane-3-carbonyl)-7-oxa-5-azaspiro[3.4]octan-6-one]	200 nM
O=C1N[C@]2(CO1)C[C@H](C(=O)N1CCC3(c4ccccc4)C(C1)C3(Cl)Cl)C2 (racemic) [Example 124, (rac)-(2s,4s)-2-(7,7-Dichloro-6-phenyl-3-azabicyclo[4.1.0]heptane-3-carbonyl)-7-oxa-5-azaspiro[3.4]octan-6-one]	32 nM
O=C1CCC2(CC(C(=O)N3CC[C@@]4(c5cccc(OC(F)(F)F)c5)C[C@H]4C3)C2)N1 (relative stereo) [Example 119, (2r,4*5)-2-((1*R,6*5)-6-(3-(Trifluoromethoxy)phenyl)-3-azabicyclo[4.1.0]heptane-3-carbonyl)-5-azaspiro[3.4]octan-6-one]	5.2 nM
O=C1CCC2(CC(C(=O)N3CC[C@]4(c5cccc(OC(F)(F)F)c5)C[C@@H]4C3)C2)N1 (relative stereo) [Example 120, (2r,4*R)-2-((1*S,6*R)-6-(3-(Trifluoromethoxy)phenyl)-3-azabicyclo[4.1.0]heptane-3-carbonyl)-5-azaspiro[3.4]octan-6-one]	23 nM
O=C1CCC2(CC(C(=O)N3CC[C@@]4(c5ccc(OC(F)(F)F)cc5)C[C@H]4C3)C2)N1 (relative stereo) [Example 121, (2r,4*5)-2-((1*R,6*S)-6-(4-(Trifluoromethoxy)phenyl)-3-azabicyclo[4.1.0]heptane-3-carbonyl)-5-azaspiro[3.4]octan-6-one]	42 nM
O=C1CCC2(CC(C(=O)N3CC[C@]4(c5ccc(OC(F)(F)F)cc5)C[C@@H]4C3)C2)N1 (relative stereo) [Example 122, (2r,4*R)-2-((1*S,6*R)-6-(4-(Trifluoromethoxy)phenyl)-3-azabicyclo[4.1.0]heptane-3-carbonyl)-5-azaspiro[3.4]octan-6-one]	12 nM
CC(C)(C)c1ccc([C@@]23C[C@@H]2CN(C(=O)[C@H]2C[C@]4(CCC(=O)N4)C2)C3)cc1 (stereo in doubt) [Example 14, (2r,4*S)-2-((1*R,5*5)-1-(4-(tert-Butyl)phenyl)-3-azabicyclo[3.1.0]hexane-3-carbonyl)-5-azaspiro[3.4]octan-6-one]	23 nM
CC(C)(C)c1ccc([C@]23C[C@H]2CN(C(=O)[C@H]2C[C@]4(CCC(=O)N4)C2)C3)cc1 (stereo in doubt) [Example 15, (2r,4*R)-2-((1*S,5*R)-1-(4-(tert-Butyl)phenyl)-3-azabicyclo[3.1.0]hexane-3-carbonyl)-5-azaspiro[3.4]octan-6-one]	12 nM
Cc1cccc([C@]23CCN(C(=O)[C@H]4C[C@]5(COC(=O)N5)C4)C[C@H]2C3)c1 (stereo in doubt) [Example 44, (2s,4*R)-2-((1*S,6*R)-6-(m-Tolyl)-3-azabicyclo[4.1.0]heptane-3-carbonyl)-7-oxa-5-azaspiro[3.4]octan-6-one]	2.8 nM
Cc1cccc([C@@]23CCN(C(=O)[C@H]4C[C@]5(COC(=O)N5)C4)C[C@@H]2C3)c1 (stereo in doubt) [Example 45, (2s,4*5)-2-((1*R,6*S)-6-(m-Tolyl)-3-azabicyclo[4.1.0]heptane-3-carbonyl)-7-oxa-5-azaspiro[3.4]octan-6-one]	32 nM
Cc1ccc([C@]23CCN(C(=O)[C@H]4C[C@]5(COC(=O)N5)C4)C[C@H]2C3)cc1F (stereo in doubt) [Example 47, (2s,4*R)-2-((1*S,6*R)-6-(3-Fluoro-4-methylphenyl)-3-azabicyclo[4.1.0]heptane-3-carbonyl)-7-oxa-5-azaspiro[3.4]octan-6-one]	21 nM
O=C1N[C@]2(CO1)C[C@H](C(=O)N1CC[C@]3(c4cccc(OC(F)(F)F)c4)C[C@@H]3C1)C2 (stereo in doubt) [Example 50, (2s,4*R)-2-((1*S,6*R)-6-(3-(Trifluoromethoxy)phenyl)-3-azabicyclo[4.1.0]heptane-3-carbonyl)-7-oxa-5-azaspiro[3.4]octan-6-one]	4.2 nM
O=C1N[C@]2(CO1)C[C@H](C(=O)N1CC[C@@]3(c4cccc(OC(F)(F)F)c4)C[C@H]3C1)C2 (stereo in doubt) [Example 51, (2s,4*S)-2-((1*R,6*S)-6-(3-(Trifluoromethoxy)phenyl)-3-azabicyclo[4.1.0]heptane-3-carbonyl)-7-oxa-5-azaspiro[3.4]octan-6-one]	0.52 nM
O=C1N[C@]2(CO1)C[C@H](C(=O)N1C[C@@H]3[C@H](C1)[C@H]3c1cccc(OC(F)(F)F)c1)C2 [Example 38, (2s,4S)-2-((1R,5S,6S)-6-(3-(Trifluoromethoxy)phenyl)-3-azabicyclo[3.1.0]hexane-3-carbonyl)-7-oxa-5-azaspiro[3.4]octan-6-one]	21 nM
O=C1N[C@]2(CO1)C[C@H](C(=O)N1CC[C@@]3(c4ccccc4)C[C@H]3C1)C2 [Example 40, (2s,4S)-2-((1R,6S)-6-Phenyl-3-azabicyclo[4.1.0]heptane-3-carbonyl)-7-oxa-5-azaspiro[3.4]octan-6-one]	136 nM

Next, values leading:

IC50	Compound
6 nM	Cc1ccc([C@H]2[C@@H]3CN(C(=O)[C@H]4C[C@]5(COC(=O)N5)C4)C[C@@]32C)cc1C(F)(F)F (racemic) [Example 112, (rac)-(2s,4*S)-2-((1*R,5*S,6*R)-1-Methyl-6-(4-methyl-3-(trifluoromethyl)phenyl)-3-azabicyclo[3.1.0]hexane-3-carbonyl)-7-oxa-5-azaspiro[3.4]octan-6-one]
4.1 nM	Cc1ccc([C@H]2[C@@H]3CN(C(=O)[C@H]4C[C@]5(COC(=O)N5)C4)C[C@@]32C)cc1OC(F)(F)F (racemic) [Example 114, (rac)-(2s,4*S)-2-((1*R,5*S,6*R)-1-Methyl-6-(4-methyl-3-(trifluoromethoxy)phenyl)-3-azabicyclo[3.1.0]hexane-3-carbonyl)-7-oxa-5-azaspiro[3.4]octan-6-one]
5 nM	CC(C)c1cccc([C@@]23C[C@@H]2CN(C(=O)[C@H]2C[C@]4(COC(=O)N4)C2)C3)c1 (stereo in doubt) [Example 7, (2s,4*5)-2-((1*R,5*5)-1-(3-Isopropylphenyl)-3-azabicyclo[3.1.0]hexane-3-carbonyl)-7-oxa-5-azaspiro[3.4]octan-6-one]
11 nM	CC(C)c1cccc([C@]23C[C@H]2CN(C(=O)[C@H]2C[C@]4(COC(=O)N4)C2)C3)c1 (stereo in doubt) [Example 8, (2s,4*R)-2-((1*S,5*R)-1-(3-Isopropylphenyl)-3-azabicyclo[3.1.0]hexane-3-carbonyl)-7-oxa-5-azaspiro[3.4]octan-6-one]
2.3 nM	CC(C)c1ccc([C@@]23C[C@@H]2CN(C(=O)[C@H]2C[C@]4(COC(=O)N4)C2)C3)cc1 (stereo in doubt) [Example 10, (2s,4*5)-2-((1*R,5*S)-1-(4-Isopropylphenyl)-3-azabicyclo[3.1.0]hexane-3-carbonyl)-7-oxa-5-azaspiro[3.4]octan-6-one]
2.3 nM	CC(C)c1ccc([C@]23C[C@H]2CN(C(=O)[C@H]2C[C@]4(COC(=O)N4)C2)C3)cc1 (stereo in doubt) [Example 11, (2s,4*R)-2-((1*S,5*R)-1-(4-Isopropylphenyl)-3-azabicyclo[3.1.0]hexane-3-carbonyl)-7-oxa-5-azaspiro[3.4]octan-6-one]
1.3 nM	Cc1ccc([C@@]23CCN(C(=O)[C@H]4C[C@]5(COC(=O)N5)C4)C[C@@H]2C3)cc1F (stereo in doubt) [Example 48, (2s,4*5)-2-((1*R,6*5)-6-(3-Fluoro-4-methylphenyl)-3-azabicyclo[4.1.0]heptane-3-carbonyl)-7-oxa-5-azaspiro[3.4]octan-6-one]
0.76 nM	CC(C)(C)c1cccc([C@H]2[C@@H]3CN(C(=O)[C@H]4C[C@]5(COC(=O)N5)C4)C[C@@]32C)c1 (stereo in doubt) [Example 93, (rac)-(2s,4*5)-2-((1*R,5*S,6*R)-6-(3-(tert-Butyl)phenyl)-1-methyl-3-azabicyclo[3.1.0]hexane-3-carbonyl)-7-oxa-5-azaspiro[3.4]octan-6-one]
7.5 nM	CC1(c2ccc([C@@]34C[C@@H]3CN(C(=O)[C@H]3C[C@]5(CCC(=O)N5)C3)C4)cc2)CC1 (stereo in doubt) [Example 95, (2r,4*S)-2-((1*R,5*5)-1-(4-(1-Methylcyclopropyl)phenyl)-3-azabicyclo[3.1.0]hexane-3-carbonyl)-5-azaspiro[3.4]octan-6-one]
8.5 nM	CC1(c2ccc([C@]34C[C@H]3CN(C(=O)[C@H]3C[C@]5(CCC(=O)N5)C3)C4)cc2)CC1 (stereo in doubt) [Example 96, (2r,4*R)-2-((1*S,5*R)-1-(4-(1-Methylcyclopropyl)phenyl)-3-azabicyclo[3.1.0]hexane-3-carbonyl)-5-azaspiro[3.4]octan-6-one]
0.64 nM	CC(C)(C)c1cccc([C@H]2[C@@H]3CN(C(=O)[C@H]4C[C@]5(COC(=O)N5)C4)C[C@@]32C)c1 (stereo in doubt) [Example 99, (2s,4*5)-2-((1*R,5*S,6*R)-6-(3-(tert-Butyl)phenyl)-1-methyl-3-azabicyclo[3.1.0]hexane-3-carbonyl)-7-oxa-5-azaspiro[3.4]octan-6-one]
8.3 nM	CC(C)(C)c1cccc([C@@H]2[C@H]3CN(C(=O)[C@H]4C[C@]5(COC(=O)N5)C4)C[C@]32C)c1 (stereo in doubt) [Example 100, (2s,4*R)-2-((1*S,5*R,6*5)-6-(3-(tert-Butyl)phenyl)-1-methyl-3-azabicyclo[3.1.0]hexane-3-carbonyl)-7-oxa-5-azaspiro[3.4]octan-6-one]

— US11708359B2, “Monoacylglycerol lipase modulators” (Janssen Pharmaceutica NV, priority 2020, dated 2023)
